These results are taken from DBAASP.

In brackets after ≈: the same amount, converted by molar mass.

Among the test systems are Escherichia coli; Staphylococcus aureus; Bacillus cereus; Escherichia coli UB1005; Bacillus subtilis.
Common to all, as to experiment: ≥ marks a high value that may be exact or a test limit, other limits are often not marked, values filed in µg/mL are converted to µM
The subject of assay [1] is Escherichia coli ATCC 25922.
Assay [2] deals with Salmonella enterica subsp. enterica serovar Typhimurium C77-31.
Assay [3] relates to Staphylococcus epidermidis ATCC 12228.
In assay [4] the test system is Staphylococcus aureus ATCC 25923.
Assay [5] deals with Staphylococcus aureus ATCC 29213.
Assay [6] deals with Enterococcus faecalis ATCC 29212.
The subject of assay [7] is Salmonella enterica subsp. enterica serovar Pullorum C79-13.
The subject of assay [8] is Salmonella enterica subsp. enterica serovar Typhimurium ATCC 14028.
The subject of assay [9] is Pseudomonas aeruginosa ATCC 27853.
The test system of assay [10] is Escherichia coli DH5alpha.

For `CC(C)C[C@H](NC(=O)[C@@H](N)Cc1ccccc1)C(=O)NCC(=O)N[C@@H](CCCCN)C(=O)N[C@H](C(=O)N[C@@H](Cc1ccccc1)C(=O)N[C@@H](CCCCN)C(=O)N[C@@H](CCCCN)C(=O)N[C@@H](C)C(=O)N[C@H](C(=O)N[C@@H](CCCCN)C(=O)N[C@H](C(=O)N[C@@H](Cc1ccccc1)C(=O)N1CCC[C@H]1C(=O)N[C@@H](C)C(=O)N[C@H](C(=O)N[C@@H](Cc1ccccc1)C(=O)NCC(=O)N[C@@H](CCCCN)C(=O)N[C@H](C(=O)O)C(C)C)C(C)C)C(C)C)C(C)C)C(C)C` [FLGKVFKKAVKVFPAVFGKV], the results for the MIC in the assay on Escherichia coli, in the assay on Staphylococcus aureus and in the assay on Bacillus cereus were 14.5 µM (≈ 32 µg/mL), 116 µM (≈ 256 µg/mL) and at least 116 µM, respectively.

Take `CC(C)C[C@H](NC(=O)[C@@H](N)Cc1ccccc1)C(=O)NCC(=O)N[C@H](C(=O)N[C@H](C(=O)N[C@@H](Cc1ccccc1)C(=O)N[C@@H](CCCCN)C(=O)NCC(=O)N[C@@H](C)C(=O)N[C@@H](CO)C(=O)N[C@@H](CCCCN)C(=O)N[C@H](C(=O)N[C@@H](Cc1ccccc1)C(=O)N1CCC[C@H]1C(=O)N[C@@H](C)C(=O)N[C@H](C(=O)N[C@H](C(=O)NCC(=O)N[C@@H](CCCCN)C(=O)N[C@H](C(=O)O)C(C)C)C(C)C)C(C)C)C(C)C)C(C)C)C(C)C` [FLGVVFKGASKVFPAVVGKV]: the MIC (in general, the lowest concentration found to suppress growth) against Escherichia coli is over 125 µM; in the assay with Staphylococcus aureus, over 125 µM; in the assay with Bacillus cereus, at least 125 µM.

As for `CC(C)C[C@H](NC(=O)[C@H](CCCCN)NC(=O)[C@H](Cc1ccccc1)NC(=O)[C@@H](NC(=O)[C@@H](NC(=O)CNC(=O)[C@H](CC(C)C)NC(=O)[C@@H](N)Cc1ccccc1)C(C)C)C(C)C)C(=O)N[C@@H](C)C(=O)N[C@H](C(=O)N[C@@H](CCCCN)C(=O)N[C@H](C(=O)N[C@@H](Cc1ccccc1)C(=O)N1CCC[C@H]1C(=O)N[C@@H](C)C(=O)N[C@H](C(=O)N[C@@H](Cc1ccccc1)C(=O)NCC(=O)N[C@@H](CCCCN)C(=O)N[C@H](C(=O)O)C(C)C)C(C)C)C(C)C)C(C)C` [FLGVVFKLAVKVFPAVFGKV], the MIC was over 118 µM in the assay with Escherichia coli, over 118 µM with Staphylococcus aureus and at least 118 µM with Bacillus cereus.

Consider `CC[C@H](C)[C@H](NC(=O)[C@H](CO)NC(=O)[C@H](CCC(N)=O)NC(=O)[C@H](CC(C)C)NC(=O)[C@H](C)NC(=O)[C@H](CC(=O)O)NC(=O)[C@H](CCCCN)NC(=O)[C@H](CCCCN)NC(=O)[C@H](CC(C)C)NC(=O)CN)C(=O)N[C@H](C(=O)N[C@@H](CCCCN)C(=O)N[C@@H](CCCCN)C(=O)N[C@@H](C)C(=O)N[C@@H](CCC(N)=O)C(=O)N[C@@H](CC(C)C)C(=O)N[C@@H](C)C(=O)N[C@@H](C)C(=O)N[C@@H](CCSC)C(=O)NCC(=O)O)C(C)C` [GLKKDALQSIVKKAQLAAMG], for which the figures for the MIC in the assay on Escherichia coli and in the assay with Bacillus cereus were over 124 µM and at least 124 µM, respectively.

On to `CC[C@H](C)[C@H](NC(=O)[C@H](C)NC(=O)[C@H](CCCCN)NC(=O)[C@H](CC(C)C)NC(=O)[C@@H](NC(=O)[C@H](CCCCN)NC(=O)CNC(=O)[C@@H](NC(=O)[C@H](CCCCN)NC(=O)[C@H](CCCCN)NC(=O)[C@H](CC(C)C)NC(=O)[C@H](CCCN=C(N)N)NC(=O)[C@H](CCCCN)NC(=O)[C@H](CCCN=C(N)N)NC(=O)[C@@H](NC(=O)[C@H](CCCCN)NC(=O)[C@H](CCCCN)NC(=O)[C@H](CCCN=C(N)N)NC(=O)[C@H](CC(C)C)NC(=O)[C@H](CCCN=C(N)N)NC(=O)[C@H](CCCN=C(N)N)NC(=O)[C@H](Cc1ccccc1)NC(=O)[C@H](CCCN=C(N)N)NC(=O)CN)[C@@H](C)O)[C@@H](C)CC)C(C)C)C(N)=O` [GRFRRLRKKTRKRLKKIGKVLKAI], for which the minimal inhibitory concentration (MIC) in the assay with Escherichia coli UB1005 was 16 µM (≈ 47.2 µg/mL); in assay [1], 16 µM (≈ 47.2 µg/mL); in [2], at least 128 µM; in assay [3], 128 µM (≈ 378 µg/mL); in [4], 128 µM (≈ 378 µg/mL); in assay [5], 128 µM (≈ 378 µg/mL).

On to `C[C@H](NC(=O)[C@@H]1CCCN1C(=O)CNC(=O)[C@H](CO)NC(=O)[C@H](CCCN=C(N)N)NC(=O)CNC(=O)[C@@H](NC(=O)[C@@H](N)Cc1cnc[nH]1)[C@@H](C)O)C(=O)N[C@H](C(=O)NCC(=O)N[C@@H](Cc1cnc[nH]1)C(=O)N[C@@H](CO)C(=O)NCC(=O)N[C@@H](Cc1cnc[nH]1)C(=O)N[C@@H](CO)C(=O)N[C@@H](CO)C(=O)N[C@H](C(=O)N[C@@H](Cc1cnc[nH]1)C(=O)NCC(=O)N[C@@H](CO)C(=O)O)[C@@H](C)O)[C@@H](C)O` [HTGRSGPATGHSGHSSTHGS], for which the MIC with Escherichia coli is over 134 µM; in the assay with Bacillus cereus it was at least 134 µM.

As for `CC(C)C[C@H](NC(=O)[C@@H](NC(=O)[C@@H](NC(=O)[C@@H](N)CC(C)C)C(C)C)[C@@H](C)O)C(=O)N[C@H](C(=O)N[C@@H](Cc1ccccc1)C(=O)N[C@H](C(=O)NCC(=O)NCC(=O)NCC(=O)N[C@@H](Cc1c[nH]c2ccccc12)C(=O)N[C@@H](CCCCN)C(=O)N[C@@H](Cc1c[nH]c2ccccc12)C(=O)N[C@@H](CCCCN)C(=O)N[C@@H](Cc1c[nH]c2ccccc12)C(=O)N[C@@H](CCCCN)C(=O)N[C@@H](CC(N)=O)C(=O)NCC(=O)N[C@@H](CCCCN)C(=O)N[C@@H](Cc1c[nH]c2ccccc12)C(=O)N[C@@H](CCCCN)C(=O)N[C@@H](Cc1c[nH]c2ccccc12)C(=O)N[C@@H](CCCCN)C(=O)N[C@@H](Cc1c[nH]c2ccccc12)C(=O)O)C(C)C)C(C)C` [LVTLVFVGGGWKWKWKNGKWKWKW], the MIC in assay [1] was 4 µM (≈ 12.1 µg/mL); in assay [2], at least 128 µM; in assay [6], 4 µM (≈ 12.1 µg/mL); in assay [3] it was 32 µM (≈ 96.6 µg/mL); in assay [7] it was 16 µM (≈ 48.3 µg/mL); in assay [5], 32 µM (≈ 96.6 µg/mL).

Regarding `CC[C@H](C)[C@H](NC(=O)[C@H](CCCCN)NC(=O)[C@H](CCCN=C(N)N)NC(=O)[C@H](CC(C)C)NC(=O)[C@H](Cc1ccccc1)NC(=O)[C@H](CCCN=C(N)N)NC(=O)CNC(=O)[C@H](Cc1ccccc1)NC(=O)[C@@H](N)CCCN=C(N)N)C(=O)N[C@@H](CCCN=C(N)N)C(=O)N[C@@H](CCCN=C(N)N)C(=O)N[C@@H](Cc1ccccc1)C(=O)N[C@@H](CCCN=C(N)N)C(=O)N1CCC[C@H]1C(=O)N[C@@H](CCCCN)C(N)=O` [RFGRFLRKIRRFRPK], the MIC was 16 µM (≈ 32.5 µg/mL) against Escherichia coli UB1005; at least 32 µM in assay [2]; 16 µM (≈ 32.5 µg/mL) in assay [6]; 16 µM (≈ 32.5 µg/mL) in assay [3]; 32 µM (≈ 65 µg/mL) in assay [8]; 16 µM (≈ 32.5 µg/mL) in assay [7]. Also, the MIC in assay [9] stood at 32 µM (≈ 65 µg/mL).

As for `CC[C@H](C)[C@H](NC(=O)[C@H](CCSC)NC(=O)[C@@H](NC(=O)[C@H](CCCCN)NC(=O)[C@H](CO)NC(=O)CNC(=O)[C@@H](NC(=O)[C@@H](NC(=O)[C@H](CCCCN)NC(=O)[C@@H](NC(=O)[C@@H]1CCCN1C(=O)[C@H](CO)NC(=O)[C@H](CCCCN)NC(=O)[C@H](CC(C)C)NC(=O)[C@@H]1CCCN1C(=O)[C@@H](NC(=O)[C@H](CCCN=C(N)N)NC(=O)[C@@H](N)CO)C(C)C)C(C)C)[C@@H](C)CC)C(C)C)C(C)C)C(=O)N[C@@H](Cc1ccccc1)C(=O)N[C@@H](C)C(=O)O` [SRVPLKSPVKIVGSKVMIFA], the MIC against Escherichia coli is over 119 µM; in the assay on Bacillus cereus, at least 119 µM.

Regarding `CC[C@H](C)[C@H](NC(=O)[C@@H](NC(=O)[C@@H](NC(=O)[C@H](CO)NC(=O)[C@@H]1CCCN1C(=O)[C@H](CCCCN)NC(=O)CNC(=O)CNC(=O)[C@H](CCCCN)NC(=O)[C@@H](NC(=O)[C@H](CO)NC(=O)[C@H](Cc1ccccc1)NC(=O)[C@@H](N)C(C)C)C(C)C)C(C)C)C(C)C)C(=O)N[C@@H](CCCCN)C(=O)N[C@H](C(=O)N[C@H](C(=O)N[C@H](C(=O)N[C@@H](C)C(=O)N[C@@H](CO)C(=O)N[C@H](C(=O)O)[C@@H](C)O)C(C)C)C(C)C)C(C)C` [VFSVKGGKPSVVIKVVVAST], the MIC was over 128 µM in the assay on Escherichia coli and at least 128 µM with Bacillus cereus.

`CC(C)C[C@H](NC(=O)CNC(=O)[C@H](CCCCN)NC(=O)[C@@H](NC(=O)[C@H](CC(C)C)NC(=O)[C@@H](NC(=O)[C@H](Cc1ccccc1)NC(=O)[C@H](Cc1ccccc1)NC(=O)[C@H](CCCCN)NC(=O)[C@H](CCCCN)NC(=O)[C@H](C)NC(=O)[C@@H](NC(=O)[C@@H](N)C(C)C)C(C)C)C(C)C)C(C)C)C(=O)N[C@@H](C)C(=O)N1CCC[C@H]1C(=O)N[C@H](C(=O)N[C@@H](CC(C)C)C(=O)N[C@@H](CO)C(=O)N1CCC[C@H]1C(=O)N[C@@H](CO)C(=O)O)C(C)C` [VVAKKFFVLVKGLAPVLSPS]: the values for the MIC against Escherichia coli and against Bacillus cereus were over 122 µM and at least 122 µM, respectively.

With `CC[C@H](C)[C@H](NC(=O)[C@H](Cc1ccccc1)NC(=O)[C@@H](NC(=O)[C@H](Cc1ccc(O)cc1)NC(=O)[C@H](CCCN=C(N)N)NC(=O)[C@H](CCCCN)NC(=O)[C@H](CCCN=C(N)N)NC(=O)[C@H](CCCCN)NC(=O)[C@H](Cc1c[nH]c2ccccc12)NC(=O)[C@H](CC(C)C)NC(=O)[C@@H](NC(=O)[C@@H](N)Cc1ccc(O)cc1)C(C)C)[C@@H](C)CC)C(=O)O` [YVLWKRKRYIFI], the MIC in [10] stood at 3.56 µM (≈ 6 µg/mL); in the assay on Bacillus subtilis, 3.56 µM (≈ 6 µg/mL); in assay [4] it was 1.78 µM (≈ 3 µg/mL); in assay [9], 8.9 µM (≈ 15 µg/mL).
